Read-outs that look alike come from different tables or passages of the source.
Tests used:
[1] = tested on: methicillin-resistant Staphylococcus aureus (MRSA) clinical isolates; experiment: Broth microdilution MIC, clinical MRSA isolates; assay type: cell-based; conditions: 24 h, 0.08–40 μM
Description: (§1) We used a set of clinical isolates of S. aureus and E. faecium that were collected at the Medical Center of the University of Debrecen (Hungary) between 1 January 2018. and 31 December 2020. The clinical isolates were identified using a Microflex MALDI-TOF mass spectrometer (Bruker, Billerica, MA, USA). The antibiotic susceptibility of the isolates was tested following the European Committee on Antimicrobial Susceptibility Testing (EUCAST) guidelines, which were valid at the time of collection.
(§2) Microdilution experiments were performed according to the standards of EUCAST [85]. The bacterial isolates to be tested were grown on Mueller–Hinton agar plates. The inoculum density of bacteria was set at 5.0 × 10^5 CFU/mL in microtiter plates in a final volume of 200 μL Mueller–Hinton broth. The tested concentration range was 0.08–40 μM (10 concentrations, twofold serial dilutions), and a drug-free growth control and an inoculum-free negative control were included. The inoculated plates were incubated for 24 h at 37 °C, then visually assessed. Minimum inhibitory concentration (MIC) was defined as the lowest concentration with a 50%≤ inhibitory effect compared to the growth control. All experiments were performed at least twice in duplicate.

A2780 cells [2] = experiment: SRB binding assay, cytostasis, 48 h treatment; assay type: cell-based; conditions: for A2780 SRB Max Inhibition: up to 100 μM, ND = not detectable
Description: (§3) The complexes described above are intended to replace registered platinum complexes. Platinum complexes constitute the core of the chemotherapy regimen used in ovarian cancer; therefore, we used a cellular model of ovarian cancer, A2780, and primary human dermal fibroblasts as models of non-transformed cells (controls). For the characterization of the complexes, we used an MTT assay after 4 h of treatment for the detection of early toxicity and an SRB assay 48 h after treatment for the detection of cytostasis.
(§4) An SRB assay measures protein content of cells in correlation with the cell number in an assay well and can therefore be used to assess cell proliferation or long-term cytostasis. Cells were seeded in 96-well plates the day before the assay. Cells were treated with the compounds for 48 h. Then medium was removed, and cells were fixed with 10% trichloroacetic acid. Fixed cells were washed in distilled water 3 times, followed by staining with SRB (0.4 m/V% dissolved in 1% acetic acid) for 10 min. Stained cells were washed in 1% acetic acid 5 times; acetic acid was removed, and cells were left to dry. Protein-bound SRB was released by adding 100 μL 10 mM Tris base. Plates were measured in a plate photometer (Thermo Scientific Multiscan GO spectrophotometer, Waltham, MA, USA) at 540 nm. On each plate, wells were designed to contain vehicle-treated cells. In calculations, the readings for these wells were considered to be 1, and all readings were expressed relative to these values.
(§5) Statistical analysis was performed using version 8.0.1 of GraphPad Prism. Values were tested for normal distribution using the Shapiro–Wilk normality test. Nonlinear regression was performed using the built-in “[Inhibitor] vs. response—Variable slope (four parameters), least square fit” utility of GraphPad, which yielded IC50 and Hill slope values if the sigmoid curves reached a plateau of inhibition and there was no decrease between two subsequent data points or when inhibition was over 90%. In other cases, the percentage of inhibition was taken for the maximum concentration (100 μM).

[3] = tested on: vancomycin-resistant Enterococcus (VRE) clinical isolates; experiment: Broth microdilution MIC, clinical VRE isolates; assay type: cell-based, E. faecium; conditions: 24 h, 0.08–40 μM
Description: as §1, §2

A2780 cells [4] = experiment: MTT reduction assay, early toxicity, 4 h treatment; assay type: cell-based
Description: as §3
(§6) An MTT reduction assay was measures the activity of mitochondrial complex I and can be used to detect toxicity. The assay was performed in a manner similar to that described in [84]. Briefly, cells were plated in 96-well plates the day before the assay. Cells were treated with the compounds for 4 h; then, MTT was added to a 0.5 mg/mL final concentration, and cells were incubated at 37 °C in a cell incubator for 40–60 min as a function of the cell line being assessed. Culture medium was removed, the reduced MTT dye was dissolved in dimethyl-sulfoxide, and plates were measured in a plate photometer (Thermo Scientific Multiscan GO spectrophotometer, Waltham, MA, USA) at 540 nm. On each plate, wells were designed to contain vehicle-treated cells. In calculations, the readings for these wells were considered to 1, and all readings were expressed relative to these values.
as §5

[5] = tested on: primary human dermal fibroblasts; experiment: MTT reduction assay, early toxicity, 4 h treatment; assay type: cell-based; conditions: up to 100 μM
Description: as §3, §6, §5

[6] = Distribution coefficient (logD), n-octanol-PBS; assay type: physicochemical; conditions: n-octanol-PBS (pH = 7.4) system
Description: The logD values of the newly synthesized complexes were determined according to a procedure described in our previous publications. page 64: Ir-7b +1.17 Rh-7b +1.41 Ru-7c +1.31 Os-7c +1.59 Ir-7c +1.40 Rh-7c +1.13 Ru-7d +1.26 Os-7d +1.42 Ir-7d +1.30 Rh-7d +1.04 Ru-7e +2.22 Os-7e +2.21 Ir-7e +1.39 Rh-7e +1.66 *logD was determined in an n-octanol-PBS (pH = 7.4) system 64 (14 pictures or pasted objects on this page, not shown here)

[7] = tested on: Enterococcus faecalis (ATCC29212); experiment: Broth microdilution MIC, reference strain; assay type: cell-based; conditions: 24 h, tested range 0.08–40 μM, read-out: MIC E. faecalis ATCC 29,212
Description: (§7) The reference strains of Staphylococcus aureus (ATCC29213) and Enterococcus faecalis (ATCC29212) were purchased from the ATCC (Manassas, VA, USA).
as §2

[8] = tested on: Staphylococcus aureus (ATCC29213); experiment: Broth microdilution MIC, reference strain; assay type: cell-based; conditions: 0.08–40 μM, read-out: MIC S. aureus ATCC 29213
Description: as §7, §2

[9] = tested on: primary human dermal fibroblasts; experiment: SRB binding assay, cytostasis, 48 h treatment; assay type: cell-based; conditions: for Fibroblast SRB Max Inhibition: up to 100 μM, ND = not detectable
Description: as §3, §4, §5

[10] = clinical isolate 20,426 MRSA, read-out: MIC 20,426 MRSA
[11] = clinical isolate 24,035 MRSA, read-out: MIC 24,035 MRSA
[12] = clinical isolate 24,268 MRSA, read-out: MIC 24,268 MRSA
[13] = clinical isolate 24,272 MRSA, read-out: MIC 24,272 MRSA
[14] = clinical isolate 24,328 MRSA, read-out: MIC 24,328 MRSA
[15] = clinical isolate 24,408 MRSA, read-out: MIC 24,408 MRSA
[16] = clinical isolate 25,051 VRE, read-out: MIC 25,051 VRE
[17] = clinical isolate 25,498 VRE, read-out: MIC 25,498 VRE
[18] = clinical isolate 27,085 VRE, read-out: MIC 27,085 VRE
[19] = inhibition at maximum concentration (100 μM) where no plateau, ND = not detectable

Cc1ccc(C(C)C)cc1.F[P-](F)(F)(F)(F)F.NC1C(c2cccnn2)OC(COC(=O)c2ccccc2)C(OC(=O)c2ccccc2)C1OC(=O)c1ccccc1.[Cl][Ru+] (mixture of isomers) [Ru-7b]
MIC [1, 10]: 10 µM | MIC [1, 11]: 10 µM | MIC [1, 12]: 10 µM | MIC [1, 13]: 20 µM | MIC [1, 14]: 20 µM | MIC [1, 15]: 10 µM | IC50 (A2780 cells [2]): 17.8 µM | A2780 SRB Max Inhibition (A2780 cells [2]): >90% | MIC [3, 16]: 10 µM | MIC [3, 17]: 10 µM | MIC [3, 18]: 10 µM | A2780 MTT Max Inhibition (A2780 cells [4]; [19]): 68.22% | Fibroblast MTT Max Inhibition [5]: 47.04% | logD [6]: 1.39 | MIC [7]: 10 µM | MIC ([8]; 24 h): 20 µM

N[C@@H]1[C@@H](OC(=O)c2ccccc2)[C@H](OC(=O)c2ccccc2)[C@@H](COC(=O)c2ccccc2)O[C@H]1c1ccccn1 [Complex 7a, 2-(2′-Amino-2′-deoxy-3′,4′,6′-tri-O-benzoyl-β-D-glucopyranosyl)pyridine]
MIC ([1]; Staphylococcus aureus, clinical isolate 20,426 MRSA, read-out: MIC 20,426 MRSA): > 40 µM | MIC ([1]; Staphylococcus aureus, clinical isolate 24,035 MRSA, read-out: MIC 24,035 MRSA): > 40 µM | MIC ([1]; Staphylococcus aureus, clinical isolate 24,268 MRSA, read-out: MIC 24,268 MRSA): > 40 µM | MIC ([1]; Staphylococcus aureus, clinical isolate 24,272 MRSA, read-out: MIC 24,272 MRSA): > 40 µM | MIC ([1]; Staphylococcus aureus, clinical isolate 24,328 MRSA, read-out: MIC 24,328 MRSA): > 40 µM | MIC ([1]; Staphylococcus aureus, clinical isolate 24,408 MRSA, read-out: MIC 24,408 MRSA): > 40 µM | A2780 SRB Max Inhibition (A2780 cells [2]): 76.24% | Fibroblast SRB Max Inhibition [9]: 26.00% | MIC ([3]; Enterococcus, clinical isolate 25,051 VRE, read-out: MIC 25,051 VRE): > 40 µM | MIC ([3]; Enterococcus, clinical isolate 25,498 VRE, read-out: MIC 25,498 VRE): > 40 µM | MIC ([3]; Enterococcus, clinical isolate 27,085 VRE, read-out: MIC 27,085 VRE): > 40 µM | inhibition at 100 µM (A2780 cells [4]; Homo sapiens, inhibition at maximum concentration (100 μM) where no plateau, ND = not detectable, read-out: A2780 MTT Max Inhibition): 18.6% | Fibroblast MTT Max Inhibition [5]: 27.02% | MIC ([7]; Enterococcus faecalis): > 40 µM | MIC ([8]; Staphylococcus aureus, ATCC29213, 24 h): > 40 µM

Cc1c(C)c(C)[c-](C)c1C.F[P-](F)(F)(F)(F)F.N[C@@H]1[C@@H](OCc2ccccc2)[C@H](OCc2ccccc2)[C@@H](COCc2ccccc2)O[C@H]1c1ccccn1.[Cl][Ir+2] [Ir-3a]
MIC [1, 10]: 10 µM | MIC [1, 11]: 20 µM | MIC [1, 12]: 5 µM | MIC [1, 13]: 10 µM | MIC [1, 14]: 10 µM | MIC [1, 15]: 10 µM | IC50 (A2780 cells [2]): 1.69 µM | A2780 SRB Max Inhibition (A2780 cells [2]): >90% | IC50 ([9]; read-out: Fibroblast SRB IC50): 14.1 µM | MIC [3, 16]: 10 µM | MIC [3, 17]: 10 µM | MIC [3, 18]: 10 µM | A2780 MTT Max Inhibition (A2780 cells [4]; [19]): 82.71% | logD [6]: 3.18 | MIC [7]: 20 µM | MIC ([8]; 24 h): 20 µM

Cc1c(C)c(C)[c-](C)c1C.F[P-](F)(F)(F)(F)F.N[C@@H]1[C@@H](OC(=O)c2ccccc2)[C@H](OC(=O)c2ccccc2)[C@@H](COC(=O)c2ccccc2)O[C@H]1c1ccccn1.[Cl][Ir+2] [Ir-7a]
MIC [1, 10]: 10 µM | MIC [1, 11]: 10 µM | MIC [1, 12]: 10 µM | MIC [1, 13]: 10 µM | MIC [1, 14]: 20 µM | MIC [1, 15]: 10 µM | IC50 (A2780 cells [2]): 6.2 µM | A2780 SRB Max Inhibition (A2780 cells [2]): >90% | Fibroblast SRB Max Inhibition [9]: 56.31% | MIC [3, 16]: 40 µM | MIC [3, 17]: 40 µM | MIC [3, 18]: 40 µM | IC50 (A2780 cells [4]): 11.6 µM | A2780 MTT Max Inhibition (A2780 cells [4]; [19]): >90% | Fibroblast MTT Max Inhibition [5]: 65.18% | logD [6]: 1.08 | MIC [7]: 40 µM | MIC ([8]; 24 h): 20 µM

Cc1ccc(C(C)C)cc1.F[P-](F)(F)(F)(F)F.N[C@@H]1[C@@H](OCc2ccccc2)[C@H](OCc2ccccc2)[C@@H](COCc2ccccc2)O[C@H]1c1cnccn1.[Cl][Os+] [Os-3d]
MIC [1, 10]: 40 µM | MIC [1, 11]: 40 µM | MIC [1, 12]: 40 µM | MIC [1, 13]: 40 µM | MIC [1, 14]: 40 µM | MIC [1, 15]: 40 µM | IC50 (A2780 cells [2]): 6.83 µM | A2780 SRB Max Inhibition (A2780 cells [2]): >90% | MIC [3, 16]: 40 µM | MIC [3, 17]: 40 µM | MIC [3, 18]: 40 µM | IC50 (A2780 cells [4]): 32.3 µM | A2780 MTT Max Inhibition (A2780 cells [4]; [19]): 86.83% | Fibroblast MTT Max Inhibition [5]: 73.24% | logD [6]: 2.64 | MIC [7]: >40 µM | MIC ([8]; 24 h): 40 µM

Cc1ccc(C(C)C)cc1.F[P-](F)(F)(F)(F)F.N[C@@H]1[C@@H](OCc2ccccc2)[C@H](OCc2ccccc2)[C@@H](COCc2ccccc2)O[C@H]1c1cnccn1.[Cl][Ru+] [Ru-3d]
MIC [1, 10]: 20 µM | MIC [1, 11]: 20 µM | MIC [1, 12]: 20 µM | MIC [1, 13]: 20 µM | MIC [1, 14]: 20 µM | MIC [1, 15]: 20 µM | IC50 (A2780 cells [2]): 3.77 µM | A2780 SRB Max Inhibition (A2780 cells [2]): >90% | MIC [3, 16]: 20 µM | MIC [3, 17]: 20 µM | MIC [3, 18]: 20 µM | IC50 (A2780 cells [4]): 19.3 µM | A2780 MTT Max Inhibition (A2780 cells [4]; [19]): >90% | Fibroblast MTT Max Inhibition [5]: 80.31% | logD [6]: 2.06 | MIC [7]: 20 µM | MIC ([8]; 24 h): 20 µM

From PMC10096180, “Half-Sandwich Type Platinum-Group Metal Complexes of C-Glucosaminyl Azines: Synthesis and Antineoplastic and Antimicrobial Activities” (Molecules, 2023)
